According to patent US20250250302A1, “SYNTHESIS OF SELF-ASSEMBLING ARTIFICIAL PROTEINS UTILIZING A HOST-GUEST SYSTEM AND USES THEREOF” (Indian Institute of Science Education and Research, Pune …, priority 2024, published 2025):

Experiment: solubility test of α, β, and γcyclodextrin in water
Details: compared with β cyclodextrin

For OC[C@H]1O[C@@H]2O[C@H]3[C@H](O)[C@@H](O)[C@@H](O[C@H]4[C@H](O)[C@@H](O)[C@@H](O[C@H]5[C@H](O)[C@@H](O)[C@@H](O[C@H]6[C@H](O)[C@@H](O)[C@@H](O[C@H]7[C@H](O)[C@@H](O)[C@@H](O[C@H]1[C@H](O)[C@H]2O)O[C@@H]7CO)O[C@@H]6CO)O[C@@H]5CO)O[C@@H]4CO)O[C@@H]3CO [a], the solubility in water was “better solubility in water compared to β cyclodextrin”.
